The values below come from patent US12577245B2, “Sulfonyl benzamide derivatives as Bcl-2 inhibitors” (ASCENTAGE PHARMA (SUZHOU) CO., LTD., priority 2021, dated 2026).

pIC50: −log10 of the molar value.

This experiment has as its target Bcl-2 G101V (Homo sapiens, UniProt P10415, G101V). In words: Bcl-2 G101V inhibition, fluorescence polarization (Flu-BIM tracer) binding assay. The note with it: FP; 20 nM Bcl2, 5 nM Flu-BIM, 1 h incubation; read-out: Bcl-2 G101V (FP). (Fluorescence polarisation rises when a labelled molecule tumbles more slowly, as on binding a larger partner.)
For the compound `CC1(C)CCC(CN2CCN(c3ccc(C(=O)NS(=O)(=O)c4ccc(NC[C@H]5CC[C@](C)(O)CC5)c([N+](=O)[O-])c4)c(Oc4cnc5[nH]ccc5c4)c3)CC2)=C(c2cc(-c3ccc(F)cc3F)cs2)C1` [Example 43, 2-((1H-pyrrolo[2,3-b]pyridin-5-yl)oxy)-4-(4-((2-(4-(2,4-difluorophenyl)thiophen-2-yl)-4,4-dimethylcyclohex-1-en-1-yl)methyl)piperazin-1-yl)-N-((4-((((1r,4r)-4-hydroxy-4-methylcyclohexyl)methyl)amino)-3-nitrophenyl)sulfonyl)benzamide], the pIC50 is 7.47.

As to `CC1(C)CCC(CN2CCN(c3ccc(C(=O)NS(=O)(=O)c4ccc(NC[C@H]5COCCO5)c([N+](=O)[O-])c4)c(Oc4cnc5[nH]ccc5c4)c3)CC2)=C(c2cc(-c3ccc(Cl)cc3F)cs2)C1` [Example 44, (S)—N-((4-(((1,4-dioxan-2-yl)methyl)amino)-3-nitrophenyl)sulfonyl)-2-((1H-pyrrolo[2,3-b]pyridin-5-yl)oxy)-4-(4-((2-(4-(4-chloro-2-fluorophenyl)thiophen-2-yl)-4,4-dimethylcyclohex-1-en-1-yl)methyl)piperazin-1-yl)benzamide], the pIC50 is 7.33.

For `CC1(C)CCC(CN2CCN(c3ccc(C(=O)NS(=O)(=O)c4ccc(NC[C@H]5CC[C@](C)(O)CC5)c([N+](=O)[O-])c4)c(Oc4cnc5[nH]ccc5c4)c3)CC2)=C(c2cc(-c3cc(F)c(F)c(F)c3)cs2)C1` [Example 45, 2-((1H-pyrrolo[2,3-b]pyridin-5-yl)oxy)-4-(4-((4,4-dimethyl-2-(4-(3,4,5-trifluorophenyl)thiophen-2-yl)cyclohex-1-en-1-yl)methyl)piperazin-1-yl)-N-((4-((((1r,4r)-4-hydroxy-4-methylcyclohexyl)methyl)amino)-3-nitrophenyl)sulfonyl)benzamide], the pIC50 is 7.31.

In the case of `CC1(C)CCC(CN2CCN(c3ccc(C(=O)NS(=O)(=O)c4ccc(NC[C@H]5CC[C@](C)(O)CC5)c([N+](=O)[O-])c4)c(Oc4cnc5[nH]ccc5c4)c3)CC2)=C(c2cc(-c3ccc(F)c(F)c3F)cs2)C1` [Example 46, 2-((1H-pyrrolo[2,3-b]pyridin-5-yl)oxy)-4-(4-((4,4-dimethyl-2-(4-(2,3,4-trifluorophenyl)thiophen-2-yl)cyclohex-1-en-1-yl)methyl)piperazin-1-yl)-N-((4-((((1r,4r)-4-hydroxy-4-methylcyclohexyl)methyl)amino)-3-nitrophenyl)sulfonyl)benzamide], the pIC50 is 7.36.

On to `CC1(C)CCC(CN2CCN(c3ccc(C(=O)NS(=O)(=O)c4ccc(NC[C@H]5COCCO5)c([N+](=O)[O-])c4)c(Oc4cnc5[nH]ccc5c4)c3)CC2)=C(c2cc(-c3ccc(C(F)F)cc3)cs2)C1` [Example 48, (S)—N-((4-(((1,4-dioxan-2-yl)methyl)amino)-3-nitrophenyl)sulfonyl)-2-((1H-pyrrolo[2,3-b]pyridin-5-yl)oxy)-4-(4-((2-(4-(4-(difluoromethyl)phenyl)thiophen-2-yl)-4,4-dimethylcyclohex-1-en-1-yl)methyl)piperazin-1-yl)benzamide], for which the pIC50 is 7.43.

In the case of `CC1(C)CCC(CN2CCN(c3ccc(C(=O)NS(=O)(=O)c4ccc(NC[C@H]5CC[C@](C)(O)CC5)c([N+](=O)[O-])c4)c(Oc4cnc5[nH]ccc5c4)c3)CC2)=C(c2cc(-c3ccc(C(F)F)cc3)cs2)C1` [Example 49, 2-((1H-pyrrolo[2,3-b]pyridin-5-yl)oxy)-4-(4-((2-(4-(4-(difluoromethyl)phenyl)thiophen-2-yl)-4,4-dimethylcyclohex-1-en-1-yl)methyl)piperazin-1-yl)-N-((4-((((1r,4r)-4-hydroxy-4-methylcyclohexyl)methyl)amino)-3-nitrophenyl)sulfonyl)benzamide], the pIC50 was 7.36.

For the compound `CC1(C)CCC(CN2CCN(c3ccc(C(=O)NS(=O)(=O)c4ccc(NC[C@H]5COCCO5)c([N+](=O)[O-])c4)c(Oc4cnc5[nH]ccc5c4)c3)CC2)=C(c2cc(-c3ccc(F)c(F)c3)cs2)C1` [Example 50, (S)—N-((4-(((1,4-dioxan-2-yl)methyl)amino)-3-nitrophenyl)sulfonyl)-2-((1H-pyrrolo[2,3-b]pyridin-5-yl)oxy)-4-(4-((2-(4-(3,4-difluorophenyl)thiophen-2-yl)-4,4-dimethylcyclohex-1-en-1-yl)methyl)piperazin-1-yl)benzamide], the pIC50 is 7.37.

Take `CC1(C)CCC(CN2CCN(c3ccc(C(=O)NS(=O)(=O)c4ccc(NC[C@H]5CC[C@](C)(O)CC5)c([N+](=O)[O-])c4)c(Oc4cnc5[nH]ccc5c4)c3)CC2)=C(c2cc(-c3ccc(F)c(F)c3)cs2)C1` [Example 51, 2-((1H-pyrrolo[2,3-b]pyridin-5-yl)oxy)-4-(4-((2-(4-(3,4-difluorophenyl)thiophen-2-yl)-4,4-dimethylcyclohex-1-en-1-yl)methyl)piperazin-1-yl)-N-((4-((((1r,4r)-4-hydroxy-4-methylcyclohexyl)methyl)amino)-3-nitrophenyl)sulfonyl)benzamide]: the pIC50 was 7.34.

For the compound `CC1(C)CCC(CN2CCN(c3ccc(C(=O)NS(=O)(=O)c4ccc(NC[C@H]5CC[C@](C)(O)CC5)c([N+](=O)[O-])c4)c(Oc4cnc5[nH]ccc5c4)c3)CC2)=C(c2cc(-c3cc(F)c(F)cc3F)cs2)C1` [Example 53, 2-((1H-pyrrolo[2,3-b]pyridin-5-yl)oxy)-4-(4-((4,4-dimethyl-2-(4-(2,4,5-trifluorophenyl)thiophen-2-yl)cyclohex-1-en-1-yl)methyl)piperazin-1-yl)-N-((4-((((1r,4r)-4-hydroxy-4-methylcyclohexyl)methyl)amino)-3-nitrophenyl)sulfonyl)benzamide], the pIC50 was 7.44.

For `CC1(C)CCC(CN2CCN(c3ccc(C(=O)NS(=O)(=O)c4ccc(NC[C@H]5CC[C@](C)(O)CC5)c([N+](=O)[O-])c4)c(Oc4cnc5[nH]ccc5c4)c3)CC2)=C(c2cc(-c3c(F)ccc(F)c3F)cs2)C1` [Example 54, 2-((1H-pyrrolo[2,3-b]pyridin-5-yl)oxy)-4-(4-((4,4-dimethyl-2-(4-(2,3,6-trifluorophenyl)thiophen-2-yl)cyclohex-1-en-1-yl)methyl)piperazin-1-yl)-N-((4-((((1r,4r)-4-hydroxy-4-methylcyclohexyl)methyl)amino)-3-nitrophenyl)sulfonyl)benzamide], the pIC50 is 7.48.

As for `CC1(C)CCC(CN2CCN(c3ccc(C(=O)NS(=O)(=O)c4ccc(NC[C@H]5CC[C@](C)(O)CC5)c([N+](=O)[O-])c4)c(Oc4cnc5[nH]ccc5c4)c3)CC2)=C(c2cc(-c3cc(F)cc(C#N)c3)cs2)C1` [Example 55, 2-((1H-pyrrolo[2,3-b]pyridin-5-yl)oxy)-4-(4-((2-(4-(3-cyano-5-fluorophenyl)thiophen-2-yl)-4,4-dimethylcyclohex-1-en-1-yl)methyl)piperazin-1-yl)-N-((4-((((1r,4r)-4-hydroxy-4-methylcyclohexyl)methyl)amino)-3-nitrophenyl)sulfonyl)benzamide], the pIC50 was 7.32.
